According to article PMC10622577, “Structural basis for stabilisation of the RAD51 nucleoprotein filament by BRCA2” (Nature Communications, 2023):

Tests used:
RAD51 D184A, D187A NPFs = assay: SPR of TR2 binding to RAD51 D184A, D187A NPFs; design: species or system human
Procedure: (§1) We investigated further the effect of the acidic patch mutations on TR2 binding using surface plasmon resonance (SPR). We developed an SPR assay whereby increasing amounts of TR2 peptide were added to RAD51 NPFs that had been assembled on biotinylated DNA coupled to a streptavidin chip (Supplementary Fig. 3A, Supplementary Table 1). […] We used the same SPR assay to assess the effect of the mutations on the ability of BRC4 to disrupt an established filament (Supplementary Fig. 4A, Supplementary Table 1).
All SPR experiments were performed using a Biacore T200 instrument and an S-series SA (Streptavidin) sensor chip. A single chip was used to immobilise biotinylated single- and double-stranded DNA in buffer: 25 mM HEPES pH 7.4, 100 mM NaCl, 1 mM EDTA. ssDNA and dsDNA were immobilised in different channels to a signal of 120 RU and 250 RU, respectively.
All binding experiments were performed in CMA buffer: 25 mM HEPES pH 7.4, 100 mM NaCl, 2 mM DTT, 2 mM ATP, 5 mM CaCl2, 5 mM MgCl2. 1 μM RAD51 (wild-type, D184A or D184A, D187A mutant proteins) was injected for 120 seconds followed by buffer for 120 seconds at a flow rate of 10 μl/min. TR2 or BRC4 peptides were then injected in a concentration titration series of 0.1, 0.25, 0.5, 0.75, 1, 2, 3, 5, 7.5, 10 and 15 μM for 120 seconds at a flow rate of […] followed by a dissociation time of 240 seconds. After each injection of BRCA2 peptide, the sensor chip was regenerated with buffer comprising of CMA buffer with 1 M NaCl for 120 seconds at a flow rate of 100 μl/min. All experiments were performed in triplicate.
For the BRCA2 TR2 titration series, blank-subtracted sensorgrams were used to extract the maximum response accumulated after each TR2 injection. TR2 response accumulation was corrected to account for differences in RAD51 filament formation between runs, by multiplying the maximum response by a scale factor calculated as the ratio between mean RAD51 filament accumulation on each DNA substrate and the mean RAD51 accumulated for each mutant for each triplicate. The first experiment of the triplicate series for binding of TR2 to the D184A, D187A RAD51 NPF on dsDNA was discounted due to a failed peptide injection.
All graph plotting and statistical analysis was performed using Prism 9.3.1 (GraphPad). […] Data for each mutant on each substrate were fitted with a non-linear one-phase exponential decay.
(§2) Supplementary table 1. DNA oligos and peptides
(§3) Oligos Size (nt) Sequence (5’ – 3’)
D184A […] (forward),
D184A, D187A […] (forward),
EMSA, SPR, CryoEM (micrographs, […]
Supplementary figs. 3, 4 (ssDNA) 60 Biotin-[…]
Supplementary figs. 3, 4 (dsDNA) 60 Biotin-[…],
Panel A (ssDNA) 32 Cy5-[…]
Panel B (dsDNA) 50 […]-Cy3,
Panel B (ssDNA) 60 Biotin-[…]-
Panel B (dsDNA) 60 Biotin,
Panel C (ssDNA) 32 Biotin-[…]-Biotin […]

RAD51 D184A NPFs [1] = assay: SPR of TR2 binding to RAD51 D184A NPFs; design: species or system human; conditions: n = 3
Procedure: as §1
All SPR experiments were performed using a Biacore T200 instrument and an S-series SA (Streptavidin) sensor chip. A single chip was used to immobilise biotinylated single- and double-stranded DNA in buffer: 25 mM HEPES pH 7.4, 100 mM NaCl, 1 mM EDTA. ssDNA and dsDNA were immobilised in different channels to a signal of 120 RU and 250 RU, respectively. […]
For the BRCA2 TR2 titration series, blank-subtracted sensorgrams were used to extract the maximum response accumulated after each TR2 injection. TR2 response accumulation was corrected to account for differences in RAD51 filament formation between runs, by multiplying the maximum response by a scale factor calculated as the ratio between mean RAD51 filament accumulation on each DNA substrate and the mean RAD51 accumulated for each mutant for each triplicate. […]

RAD51 D184A NPFs [2] = assay: EMSA of TR2 titration on RAD51 D184A NPFs; assay type: binding, human
Procedure: To assess RAD51 nucleoprotein (NPF) formation, wild-type and mutant RAD51 proteins were incubated with DNA in buffer: 25 mM HEPES pH 7.5, 150 mM NaCl, 2 mM DTT, 2 mM ATP, 5 mM CaCl2 for 15 minutes at room temperature. For filament binding of the TR2 peptide or His6-MBP-TR2 protein, the RAD51 NPFs were incubated with TR2 for further 5 minutes at room temperature. For filament binding of BRC4, the BRC4 peptide was pre-mixed with RAD51 for 10 minutes at room temperature before addition of DNA. For experiments with mono-streptavidin (mSA)-capped DNA, mSA (Sigma) was added in 5× molar excess of biotin labels for 15 minutes at room temperature prior to the addition of RAD51. Concentrations are provided in figures and DNA sequences for each experiment are reported in Supplementary Table 1.
Before electrophoresis, samples were mixed with a 0.5:1 volume of 50% (w/v) sucrose solution and analysed on a pre-run 0.5% (w/v) agarose gel in 0.5× TB buffer at 35 V for 2.5 hours at 4 °C. DNA was visualised by excitation of the fluorescent tag or, in the case of unlabelled DNA, by SYBR Gold staining. Gels were imaged in a Typhoon FLA9000 by excitation at 473 nm for fluorescein-labelled DNA or SYBR Gold-stained gels, 532 nm excitation for Cy3-labelled DNA or 635 nm excitation for Cy5-labelled DNA.
as §2, §3
D184A […] (forward), […]

## DDQKNCKKRRALDFLSRLPLPPPVSPICTFVSPAAQKAFQPPRSCGTKY [TR2, BRCA2 TR2 peptide spanning amino acids 3260 to 3308]
RAD51 D184A, D187A NPFs; D187A compared with single D184A, n = 3
  TR2 binding by SPR relative to D184A mutant: weaker binding compared with the single D184A mutant
RAD51 D184A, D187A NPFs; D187A, Biacore T200, streptavidin chip, biotinylated ss- or dsDNA, CMA buffer pH 7.4, 1 μM RAD51, TR2 0.1-15 μM, 120 s, n = 3 (one dsDNA run discounted, failed injection)
  TR2 binding by SPR relative to wild-type: clear reduction in TR2 binding
RAD51 D184A, D187A NPFs; D187A, SPR Fig. 1E, authors' response to reviewers
  residual TR2 binding: retain a degree of binding
RAD51 D184A, D187A NPFs; D187A, ssDNA compared with dsDNA, n = 3
  impact of mutation on TR2 binding by SPR, ssDNA versus dsDNA: stronger for NPFs formed on ssDNA
RAD51 D184A NPFs [1]; Biacore T200, streptavidin chip, biotinylated ss- or dsDNA, CMA buffer pH 7.4, 1 μM RAD51, TR2 0.1-15 μM, 120 s
  TR2 binding by SPR relative to wild-type: clear reduction in TR2 binding
RAD51 D184A NPFs [1]; ssDNA compared with dsDNA
  impact of mutation on TR2 binding by SPR, ssDNA versus dsDNA: stronger for NPFs formed on ssDNA
RAD51 D184A NPFs [2]; EMSA, ssDNA compared with dsDNA
  reduction in TR2 binding, ssDNA versus dsDNA filaments: especially pronounced for filaments formed on ssDNA
RAD51 D184A NPFs [2]; ss- and dsDNA, 25 mM HEPES pH 7.5, 150 mM NaCl, 2 mM ATP, 5 mM CaCl2, TR2 5 min, room temperature, ssDNA performed twice, dsDNA once
  TR2 binding relative to wild-type: reduction in TR2 binding proportional to the decrease in charge at RAD51’s acidic patch
